For 18 compounds, IC50 results are on record in PMC8330636, “Design and enantioselective synthesis of 3-(α-acrylic acid) benzoxaboroles to combat carbapenemase resistance” (Chemical Communications (Cambridge, England), 2021).

T2 sequence (Q6XEC0 23-265 limits assumed): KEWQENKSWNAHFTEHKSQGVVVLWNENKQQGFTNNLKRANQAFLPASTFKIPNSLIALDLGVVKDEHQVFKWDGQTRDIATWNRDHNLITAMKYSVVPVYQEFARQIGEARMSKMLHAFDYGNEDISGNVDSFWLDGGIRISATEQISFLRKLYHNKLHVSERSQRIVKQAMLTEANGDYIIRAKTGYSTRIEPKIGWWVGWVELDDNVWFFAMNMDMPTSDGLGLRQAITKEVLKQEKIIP
T3 sequence (Q9F663 25-293 limits assumed): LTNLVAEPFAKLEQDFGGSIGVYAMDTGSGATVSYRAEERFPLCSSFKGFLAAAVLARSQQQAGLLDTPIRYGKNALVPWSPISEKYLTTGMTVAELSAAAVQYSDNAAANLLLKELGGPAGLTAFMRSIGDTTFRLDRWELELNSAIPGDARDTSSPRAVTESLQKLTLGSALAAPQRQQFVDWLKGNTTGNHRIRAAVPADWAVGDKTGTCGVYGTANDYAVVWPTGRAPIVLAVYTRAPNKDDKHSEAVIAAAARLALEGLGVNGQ

The target in one assay is T1, Class B1 NDM-1 (Klebsiella pneumoniae, UniProt C7C422).
T1 construct: gene blaNDM-1
T1 sequence (C7C422 whole entry, looked up): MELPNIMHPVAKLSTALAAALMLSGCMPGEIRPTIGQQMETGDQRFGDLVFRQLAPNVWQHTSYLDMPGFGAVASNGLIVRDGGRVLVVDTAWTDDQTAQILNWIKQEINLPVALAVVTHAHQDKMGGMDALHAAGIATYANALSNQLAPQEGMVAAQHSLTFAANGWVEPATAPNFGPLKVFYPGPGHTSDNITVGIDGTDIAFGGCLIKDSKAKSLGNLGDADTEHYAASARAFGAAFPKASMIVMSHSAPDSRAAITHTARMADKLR
Kind of assay: biochemical. Also on record: inhibition of purified recombinant beta-lactamases, IC50.
Conditions: not given
On to `C=C(C(=O)O)[C@@H]1OB(O)c2ccc(Oc3ccc(C)cc3)cc21` [(R)-4m], for which the IC50 was 352 µM.
Still for that read-out and setting: in the case of `C=C(C(=O)O)[C@@H]1OB(O)c2ccc(Oc3cccc(C)c3)cc21` [(R)-4n] it was 110 µM; in that of `C=C(C(=O)O)[C@@H]1OB(O)c2ccc(Oc3ccc(C(F)(F)F)cc3)cc21` [(R)-4o], more than 600 µM; in that of `C=C(C(=O)O)[C@@H]1OB(O)c2ccc(OCc3ccccc3)cc21` [(R)-4p], more than 300 µM.
The same measure, in the same setting: in the case of `C=C(C(=O)O)[C@@H]1OB(O)c2cc(Oc3ccc([N+](=O)[O-])cc3)ccc21` [(R)-4r] it was 308 µM; in that of `C=C(C(=O)O)[C@@H]1OB(O)c2cc(Oc3ccc(Cl)cc3)ccc21` [(R)-4s], 146 µM.
On the same count and under the same terms, next, `C=C(C(=O)O)[C@@H]1OB(O)c2cc(OCc3ccccc3)ccc21` [(R)-4t]: 382 µM.

The next assay concerns the target T2, OXA-48 (Klebsiella pneumoniae, UniProt Q6XEC0).
T2 construct: purified recombinant; class D serine beta-lactamase; construct details only in ESI
Kind of assay: inhibition of purified recombinant enzyme. The assay is classed as biochemical. The settings on record: read-out: Class D OXA-48.
`C=C(C(=O)O)[C@@H]1OB(O)c2ccccc21` [(R)-4a]: the IC50 stood at 15.8 µM.
On the same count and under the same terms, in the case of `C=C(C(=O)O)[C@@H]1OB(O)c2ccc(OC)cc21` [(R)-4c] it was 42.5 µM; in that of `C=C(C(=O)O)[C@@H]1OB(O)c2ccc(F)cc21` [(R)-4f], 10.1 µM.
Regarding `C=C(C(=O)O)[C@@H]1OB(O)c2cc(F)ccc21` [(R)-4j], the IC50 came to 5.97 µM.
The same measure, in the same setting: next, `C=C(C(=O)O)[C@@H]1OB(O)c2cc(Oc3ccc(OC)cc3)ccc21` [(R)-4q]: 0.43 µM.
Turning to `C=C(C(=O)O)[C@H]1OB(O)c2ccccc21` [(S)-4a], the IC50 was 14.1 µM.
The same measure, in the same setting: in the case of `C=C(C(=O)O)[C@H]1OB(O)c2ccc(OC)cc21` [(S)-4c] it was 34.1 µM; in that of `C=C(C(=O)O)[C@H]1OB(O)c2ccc(F)cc21` [(S)-4f], 14.7 µM.
On the same count and under the same terms, in the case of `C=C(C(=O)O)[C@H]1OB(O)c2cc(F)ccc21` [(S)-4j] it was 12 µM.
Same read-out and setting: in the case of `C=C(C(=O)O)[C@H]1OB(O)c2cc(Oc3ccc(OC)cc3)ccc21` [(S)-4q] it was 0.74 µM.

The target of another assay is T2, OXA-48. Kind of assay: biochemical. The note with it: read-out: Class D OXA-48. Also on record: inhibition of purified recombinant beta-lactamases, IC50.
Take `C=C(C(=O)O)[C@@H]1OB(O)c2ccc(Oc3ccc(C)cc3)cc21` [(R)-4m]: the IC50 came out at 6.24 µM.
Same read-out and setting: next, `C=C(C(=O)O)[C@@H]1OB(O)c2ccc(Oc3cccc(C)c3)cc21` [(R)-4n]: 4.1 µM.
Still for that read-out and setting: next, `C=C(C(=O)O)[C@@H]1OB(O)c2ccc(Oc3ccc(C(F)(F)F)cc3)cc21` [(R)-4o]: 7.73 µM; `C=C(C(=O)O)[C@@H]1OB(O)c2ccc(OCc3ccccc3)cc21` [(R)-4p]: 7.55 µM.
The same measure, in the same setting: in the case of `C=C(C(=O)O)[C@@H]1OB(O)c2cc(Oc3ccc([N+](=O)[O-])cc3)ccc21` [(R)-4r] it was 2.64 µM; in that of `C=C(C(=O)O)[C@@H]1OB(O)c2cc(Oc3ccc(Cl)cc3)ccc21` [(R)-4s], 0.85 µM.
On to `C=C(C(=O)O)[C@@H]1OB(O)c2cc(OCc3ccccc3)ccc21` [(R)-4t], for which the IC50 turned out to be 1.33 µM.

A further assay has as its target T3, KPC-2 (Klebsiella pneumoniae, UniProt Q9F663).
T3 construct: purified recombinant; class A serine beta-lactamase; construct details only in ESI
Kind of assay: inhibition of purified recombinant enzyme. The assay is classed as biochemical. The note with it: read-out: Class A KPC-2.
For the compound `C=C(C(=O)O)[C@@H]1OB(O)c2ccccc21` [(R)-4a], the IC50 is 3.08 µM.
Same read-out and setting: in the case of `C=C(C(=O)O)[C@@H]1OB(O)c2ccc(OC)cc21` [(R)-4c] it was 7.62 µM.
In the case of `C=C(C(=O)O)[C@@H]1OB(O)c2ccc(F)cc21` [(R)-4f], the IC50 was 3.87 µM.
In the case of `C=C(C(=O)O)[C@@H]1OB(O)c2cc(F)ccc21` [(R)-4j], the IC50 stood at 0.97 µM.
Same read-out and setting: next, `C=C(C(=O)O)[C@@H]1OB(O)c2cc(Oc3ccc(OC)cc3)ccc21` [(R)-4q]: 0.07 µM; `C=C(C(=O)O)[C@H]1OB(O)c2ccccc21` [(S)-4a]: 0.48 µM.
On the same count and under the same terms, next, `C=C(C(=O)O)[C@H]1OB(O)c2ccc(OC)cc21` [(S)-4c]: 0.54 µM.
The same measure, in the same setting: in the case of `C=C(C(=O)O)[C@H]1OB(O)c2ccc(F)cc21` [(S)-4f] it was 0.34 µM; in that of `C=C(C(=O)O)[C@H]1OB(O)c2cc(F)ccc21` [(S)-4j], 0.49 µM; in that of `C=C(C(=O)O)[C@H]1OB(O)c2cc(Oc3ccc(OC)cc3)ccc21` [(S)-4q], 0.01 µM.

For the next assay, the target named is T1, Class B1 NDM-1. Kind of assay: biochemical. The arrangement: inhibition of purified recombinant beta-lactamases, IC50 from dose-response curves; read-out not stated in excerpts.
Conditions: not given
This is another data set of the same source. From the text: This selectivity was mostly, but not exclusively observed for the other β-lactamases, substantial inhibition of which was more sporadic than for KPC-2 (Table 2). The KPC-2 stereoselectivity for the benzoxaborole derivatives is interesting since the penicillin substrates of some of the β-lactamases have a (2S) C-3 carbon adjacent to their C-2 carboxylate. The difference in results for the (R)- and (S)-benzoxaboroles may reflect different distances between their carboxylate and electrophilic boron; the analogous carboxylate to β-lactam distance is proposed to be important with respect to antibacterial activity.[11]
Turning to `C=C(C(=O)O)[C@H]1OB(O)c2ccccc21` [(S)-4a], the IC50 was more than 600 µM.
On the same count and under the same terms, in the case of `NC(=O)[C@@H]1CC[C@@H]2CN1C(=O)N2OS(=O)(=O)O` [Avibactam] it was more than 600 µM.

Another assay concerns the target T3, KPC-2. Kind of assay: biochemical. The arrangement: inhibition of purified recombinant beta-lactamases, IC50. The settings on record: read-out: Class A KPC-2.
For `C=C(C(=O)O)[C@@H]1OB(O)c2ccc(Oc3ccc(C)cc3)cc21` [(R)-4m], the IC50 worked out at 3.58 µM.
The same measure, in the same setting: next, `C=C(C(=O)O)[C@@H]1OB(O)c2ccc(Oc3cccc(C)c3)cc21` [(R)-4n]: 2.11 µM; `C=C(C(=O)O)[C@@H]1OB(O)c2ccc(Oc3ccc(C(F)(F)F)cc3)cc21` [(R)-4o]: 3.76 µM; `C=C(C(=O)O)[C@@H]1OB(O)c2ccc(OCc3ccccc3)cc21` [(R)-4p]: 1.17 µM.
The same measure, in the same setting: in the case of `C=C(C(=O)O)[C@@H]1OB(O)c2cc(Oc3ccc([N+](=O)[O-])cc3)ccc21` [(R)-4r] it was 0.12 µM.
Same read-out and setting: next, `C=C(C(=O)O)[C@@H]1OB(O)c2cc(Oc3ccc(Cl)cc3)ccc21` [(R)-4s]: 0.27 µM.
Consider `C=C(C(=O)O)[C@@H]1OB(O)c2cc(OCc3ccccc3)ccc21` [(R)-4t], for which the IC50 amounted to 0.55 µM.
